This note sets out measurements from patent EP4745135A1 (Gluetacs Therapeutics (Shanghai) Co., Ltd., priority 2023, dated 2025).

Broadly, the inhibition is the share of the control response that was lost under treatment.

For one assay, the target named is T1, CK1α (Homo sapiens, UniProt P48729+Q96SW2).
T1 construct: effects of the compounds of the present disclosure on the expression of target proteins in cells; endogenous in cells; host or cells: human PBMCs (Milecell Biotechnologies)
As to the kind of experiment: Western blot, degradation of substrate protein in hPBMCs. Format: cell-based. The settings on record: 24 hours treatment, compounds at 50 nM and 500 nM (concentration behind the class not stated). In general terms: A western blot detects proteins with antibodies after separation by electrophoresis.

The target in the next assay is T2, IKZF1 (Homo sapiens, UniProt Q13422+Q96SW2).
T2 construct: effects of the compounds of the present disclosure on the expression of target proteins in cells; endogenous in cells; host or cells: human PBMCs (Milecell Biotechnologies)
T2 sequence (Q13422 whole entry): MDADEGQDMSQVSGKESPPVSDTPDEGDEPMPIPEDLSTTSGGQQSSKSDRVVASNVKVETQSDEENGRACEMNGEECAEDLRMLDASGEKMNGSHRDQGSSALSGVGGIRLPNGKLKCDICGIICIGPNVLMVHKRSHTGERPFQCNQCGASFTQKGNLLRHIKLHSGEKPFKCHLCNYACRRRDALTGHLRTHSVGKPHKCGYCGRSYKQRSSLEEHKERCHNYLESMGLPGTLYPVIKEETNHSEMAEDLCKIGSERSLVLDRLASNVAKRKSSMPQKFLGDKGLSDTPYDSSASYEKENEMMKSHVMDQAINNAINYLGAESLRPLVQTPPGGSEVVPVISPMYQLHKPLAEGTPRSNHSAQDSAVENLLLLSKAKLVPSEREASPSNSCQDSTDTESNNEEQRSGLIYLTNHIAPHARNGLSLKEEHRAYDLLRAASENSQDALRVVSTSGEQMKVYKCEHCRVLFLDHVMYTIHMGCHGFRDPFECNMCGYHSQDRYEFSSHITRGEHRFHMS
T2 sequence (Q96SW2 whole entry): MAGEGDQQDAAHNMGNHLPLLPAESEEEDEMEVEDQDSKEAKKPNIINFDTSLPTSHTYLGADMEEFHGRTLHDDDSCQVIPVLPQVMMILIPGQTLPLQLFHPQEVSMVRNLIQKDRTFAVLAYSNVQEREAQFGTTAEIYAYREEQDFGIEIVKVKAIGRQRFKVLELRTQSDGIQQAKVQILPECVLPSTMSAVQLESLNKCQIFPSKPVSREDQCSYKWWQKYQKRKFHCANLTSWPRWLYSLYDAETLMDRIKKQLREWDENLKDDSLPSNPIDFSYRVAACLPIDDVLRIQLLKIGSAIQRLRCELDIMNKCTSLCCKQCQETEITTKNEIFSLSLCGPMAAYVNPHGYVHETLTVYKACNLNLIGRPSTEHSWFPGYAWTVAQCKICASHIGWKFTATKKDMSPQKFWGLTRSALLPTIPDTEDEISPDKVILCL
T2 sequence (Q16531 whole entry partner): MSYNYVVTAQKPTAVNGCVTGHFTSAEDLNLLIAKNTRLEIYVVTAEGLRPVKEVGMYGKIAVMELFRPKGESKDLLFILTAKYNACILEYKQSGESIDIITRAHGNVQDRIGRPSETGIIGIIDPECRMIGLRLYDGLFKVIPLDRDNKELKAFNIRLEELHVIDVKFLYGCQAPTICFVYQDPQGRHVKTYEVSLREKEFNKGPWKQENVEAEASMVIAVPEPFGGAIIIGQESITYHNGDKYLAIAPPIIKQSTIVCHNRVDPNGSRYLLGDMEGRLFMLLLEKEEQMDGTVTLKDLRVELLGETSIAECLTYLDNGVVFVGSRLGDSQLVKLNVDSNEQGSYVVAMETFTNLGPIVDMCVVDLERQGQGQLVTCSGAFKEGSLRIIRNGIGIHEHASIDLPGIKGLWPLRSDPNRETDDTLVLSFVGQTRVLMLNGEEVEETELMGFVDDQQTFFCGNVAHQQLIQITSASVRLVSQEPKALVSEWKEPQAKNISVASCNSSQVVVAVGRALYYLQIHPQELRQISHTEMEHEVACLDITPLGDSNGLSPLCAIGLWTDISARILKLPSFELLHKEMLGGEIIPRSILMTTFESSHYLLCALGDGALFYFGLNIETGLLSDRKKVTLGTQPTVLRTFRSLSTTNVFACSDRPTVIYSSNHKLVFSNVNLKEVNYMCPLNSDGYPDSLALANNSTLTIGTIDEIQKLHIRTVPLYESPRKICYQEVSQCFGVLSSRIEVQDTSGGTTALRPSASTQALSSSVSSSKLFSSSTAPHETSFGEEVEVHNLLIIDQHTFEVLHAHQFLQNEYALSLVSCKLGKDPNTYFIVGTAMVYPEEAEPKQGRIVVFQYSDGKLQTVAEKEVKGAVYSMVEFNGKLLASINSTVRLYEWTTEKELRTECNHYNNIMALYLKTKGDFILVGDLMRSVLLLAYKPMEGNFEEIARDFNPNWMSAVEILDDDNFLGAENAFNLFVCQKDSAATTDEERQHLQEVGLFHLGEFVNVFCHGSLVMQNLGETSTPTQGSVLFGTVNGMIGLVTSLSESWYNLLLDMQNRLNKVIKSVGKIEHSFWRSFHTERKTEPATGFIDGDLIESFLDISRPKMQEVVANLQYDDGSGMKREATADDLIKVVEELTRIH
The assay is described as above. The following applies: 24 hours treatment, compounds at 50 nM and 500 nM (concentration behind the class not stated). Format: cell-based.

The next assay deals with T3, IKZF2 (Homo sapiens, UniProt Q96SW2+Q9UKS7).
T3 construct: effects of the compounds of the present disclosure on the expression of target proteins in cells; endogenous in cells; host or cells: human PBMCs (Milecell Biotechnologies)
T3 sequence (Q9UKS7 whole entry): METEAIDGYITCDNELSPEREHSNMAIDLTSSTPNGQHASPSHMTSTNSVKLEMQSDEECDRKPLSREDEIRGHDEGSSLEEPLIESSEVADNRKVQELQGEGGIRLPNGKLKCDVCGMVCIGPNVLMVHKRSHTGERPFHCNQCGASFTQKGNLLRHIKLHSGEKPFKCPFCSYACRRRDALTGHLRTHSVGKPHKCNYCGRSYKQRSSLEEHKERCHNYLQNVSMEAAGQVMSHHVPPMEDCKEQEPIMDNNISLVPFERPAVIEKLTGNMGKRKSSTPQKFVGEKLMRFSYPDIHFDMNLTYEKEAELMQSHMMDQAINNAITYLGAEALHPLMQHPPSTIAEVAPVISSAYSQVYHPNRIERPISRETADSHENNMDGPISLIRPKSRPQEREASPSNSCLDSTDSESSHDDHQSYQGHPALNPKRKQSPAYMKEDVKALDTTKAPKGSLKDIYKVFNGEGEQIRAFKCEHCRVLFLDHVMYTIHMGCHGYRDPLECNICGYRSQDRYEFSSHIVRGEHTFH
T3 sequence (Q96SW2 whole entry): as the sequence (Q96SW2 whole entry) above
T3 sequence (Q16531 whole entry partner): as the sequence (Q16531 whole entry partner) above
The assay is described as above. The settings on record: 24 hours treatment, compounds at 50 nM and 500 nM (concentration behind the class not stated). It is filed as cell-based.

The next assay concerns the target T4, IKZF3 (Homo sapiens, UniProt Q96SW2+Q9UKT9).
T4 construct: effects of the compounds of the present disclosure on the expression of target proteins in cells; endogenous in cells; host or cells: human PBMCs (Milecell Biotechnologies)
The assay is described as above. Format: cell-based. The following applies: 24 hours treatment, compounds at 50 nM and 500 nM (concentration behind the class not stated).

For a further assay, the target named is T5, WEE1 (Homo sapiens, UniProt P30291+Q96SW2).
T5 construct: effects of the compounds of the present disclosure on the expression of target proteins in cells; endogenous in cells; host or cells: human PBMCs (Milecell Biotechnologies)
T5 sequence (P30291 whole entry): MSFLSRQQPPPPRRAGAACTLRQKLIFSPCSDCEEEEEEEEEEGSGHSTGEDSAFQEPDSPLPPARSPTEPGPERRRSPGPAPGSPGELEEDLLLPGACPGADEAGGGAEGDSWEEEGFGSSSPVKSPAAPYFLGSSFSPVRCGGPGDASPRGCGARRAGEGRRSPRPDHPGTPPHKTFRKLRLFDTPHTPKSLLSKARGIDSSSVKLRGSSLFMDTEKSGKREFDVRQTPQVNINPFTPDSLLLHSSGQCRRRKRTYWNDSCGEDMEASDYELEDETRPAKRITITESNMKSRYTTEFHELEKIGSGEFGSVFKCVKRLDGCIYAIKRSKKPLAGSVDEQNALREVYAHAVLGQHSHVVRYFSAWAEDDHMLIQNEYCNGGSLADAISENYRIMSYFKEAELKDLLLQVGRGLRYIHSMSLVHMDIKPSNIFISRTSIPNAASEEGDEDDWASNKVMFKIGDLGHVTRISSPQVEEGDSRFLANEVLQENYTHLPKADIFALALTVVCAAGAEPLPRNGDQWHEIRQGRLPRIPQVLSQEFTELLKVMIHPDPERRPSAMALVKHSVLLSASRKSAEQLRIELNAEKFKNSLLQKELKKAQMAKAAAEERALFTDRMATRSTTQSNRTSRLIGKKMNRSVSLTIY
T5 sequence (Q96SW2 whole entry): as the sequence (Q96SW2 whole entry) above
T5 sequence (Q16531 whole entry partner): as the sequence (Q16531 whole entry partner) above
Described as above. Format: cell-based. The settings on record: 24 hours treatment, compounds at 50 nM and 500 nM (concentration behind the class not stated).

The next assay deals with GSPT1. The description is as above. Format: cell-based, Human. The following applies: 24 hours treatment, compounds at 50 nM and 500 nM (concentration behind the class not stated).
The target of assay [1] is T6, human Cereblon WT GST-tagged protein (Homo sapiens, UniProt Q96SW2).
T6 construct: purchased CISBIO 64BDCRBNPEH
T6 sequence (Q96SW2 whole entry): as the sequence (Q96SW2 whole entry) above
As to the kind of experiment: CRBN-binding affinity, HTRF (CEREBLON BINDING kit). The settings on record: for inhibition at 0.5 µM: read-out: Inhibition Rate at 0.5 µM (%); for inhibition at 2 µM: read-out: Inhibition Rate at 2 µM (%). A general note: In TR-FRET formats the signal depends on donor and acceptor labels being close together.

T1 sequence (P48729 whole entry): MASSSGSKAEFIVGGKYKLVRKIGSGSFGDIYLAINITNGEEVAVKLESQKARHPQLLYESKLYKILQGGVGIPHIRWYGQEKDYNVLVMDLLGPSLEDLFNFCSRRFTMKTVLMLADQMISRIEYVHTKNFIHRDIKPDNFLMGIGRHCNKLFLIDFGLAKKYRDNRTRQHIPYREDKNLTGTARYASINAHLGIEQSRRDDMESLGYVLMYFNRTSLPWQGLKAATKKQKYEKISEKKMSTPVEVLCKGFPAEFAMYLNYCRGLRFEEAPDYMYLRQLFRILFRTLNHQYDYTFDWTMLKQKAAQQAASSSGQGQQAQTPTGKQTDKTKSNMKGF
T1 sequence (Q96SW2 whole entry): as the sequence (Q96SW2 whole entry) above
T1 sequence (Q16531 whole entry partner): as the sequence (Q16531 whole entry partner) above
T4 sequence (Q9UKT9 whole entry): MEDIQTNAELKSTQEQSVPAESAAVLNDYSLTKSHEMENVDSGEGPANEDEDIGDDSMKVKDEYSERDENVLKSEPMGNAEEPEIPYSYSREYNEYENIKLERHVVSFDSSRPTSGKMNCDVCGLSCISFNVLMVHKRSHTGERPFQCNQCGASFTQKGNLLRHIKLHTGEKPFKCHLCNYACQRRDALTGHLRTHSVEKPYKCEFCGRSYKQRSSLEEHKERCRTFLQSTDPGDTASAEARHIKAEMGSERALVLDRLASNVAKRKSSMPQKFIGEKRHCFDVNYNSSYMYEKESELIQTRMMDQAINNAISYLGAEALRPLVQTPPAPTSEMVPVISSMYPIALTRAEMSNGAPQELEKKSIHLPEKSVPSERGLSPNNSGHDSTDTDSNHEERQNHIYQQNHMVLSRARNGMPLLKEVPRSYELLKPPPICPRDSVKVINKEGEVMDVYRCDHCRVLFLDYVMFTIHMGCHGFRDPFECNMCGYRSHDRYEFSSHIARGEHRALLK
T4 sequence (Q96SW2 whole entry): as the sequence (Q96SW2 whole entry) above
T4 sequence (Q16531 whole entry partner): as the sequence (Q16531 whole entry partner) above

For `Cc1nc(C2=CCN(Cc3cccc4c3CN(C3CCC(=O)NC3=O)C4=S)CC2)c2c3c(sc2n1)CCCC3` (stereo not shown) [GT-08961, 3-(4-((4-(2-methyl-5,6,7,8-tetrahydrobenzo[4,5]thieno[2,3-d]pyrimidin-4-yl)-3,6-dihydropyridin-1(2H)-yl)methyl)-1-thioxoisoindolin-2-yl)piperidine-2,6-dione], the “CK1α substrate protein remaining %” value on CK1α is “B (80%< substrate protein remaining %≤ 100%)”. Moreover, the “IKZF 1 substrate protein remaining %” value on IKZF1 was “B (80%< substrate protein remaining %≤ 100%)”. Moreover, the “IKZF2 substrate protein remaining %” value at IKZF2 was “B (80%< substrate protein remaining %≤ 100%)”. In addition, the “IKZF3 substrate protein remaining %” value on IKZF3 was “B (80%< substrate protein remaining %≤ 100%)”. Further, the “Wee1 substrate protein remaining %” value at WEE1 is recorded as “A (0% ≤ substrate protein remaining % ≤ 80%)”. For the same molecule, the “GSPT1 substrate protein remaining %” value in the assay with GSPT1 is recorded as “B (80%< substrate protein remaining %≤ 100%)”. For the same molecule, in assay [1], the inhibition at 0.5 µM was 40 to 53% and the inhibition at 2 µM fell in the range of 80 to 100%.
For `O=C1CCC(N2Cc3c(CN4CC=C(c5ncnc6sc7c(c56)CCC7)CC4)cccc3C2=S)C(=O)N1` (stereo not shown) [GT-08963, 3-(4-((4-(6,7-dihydro-5H-cyclopenta[4,5]thieno[2,3-d]pyrimidin-4-yl)-3,6-dihydropyridin-1(2H)-yl)methyl)-1-thioxoisoindolin-2-yl)piperidine-2,6-dione], on CK1α, the “CK1α substrate protein remaining %” value is “B (80%< substrate protein remaining %≤ 100%)”. In addition, on IKZF1, the “IKZF 1 substrate protein remaining %” value is given as “B (80%< substrate protein remaining %≤ 100%)”. Also, the “IKZF2 substrate protein remaining %” value on IKZF2 is given as “B (80%< substrate protein remaining %≤ 100%)”. On IKZF3, the “IKZF3 substrate protein remaining %” value is listed as “B (80%< substrate protein remaining %≤ 100%)”. In addition, on WEE1, the “Wee1 substrate protein remaining %” value is reported as “A (0% ≤ substrate protein remaining % ≤ 80%)”. Moreover, the “GSPT1 substrate protein remaining %” value with GSPT1 is listed as “B (80%< substrate protein remaining %≤ 100%)”. Also, in assay [1], the inhibition at 0.5 µM lay within 60 to 80% and the inhibition at 2 µM was in the range of 80 to 100%.
For `Cc1nc(C2=CCN(Cc3cccc4c3CN(C3CCC(=O)NC3=O)C4=S)CC2)c2c3c(sc2n1)CCC3` (stereo not shown) [GT-08964, 3-(4-((4-(2-methyl-6,7-dihydro-5H-cyclopenta[4,5]thieno[2,3-d]pyrimidin-4-yl)-3,6-dihydropyridin-1(2H)-yl)methyl)-1-thioxoisoindolin-2-yl)piperidine-2,6-dione], the “CK1α substrate protein remaining %” value on CK1α is recorded as “B (80%< substrate protein remaining %≤ 100%)”. Further, on IKZF1, the “IKZF 1 substrate protein remaining %” value is listed as “B (80%< substrate protein remaining %≤ 100%)”. Further, the “IKZF2 substrate protein remaining %” value at IKZF2 is reported as “B (80%< substrate protein remaining %≤ 100%)”. The “IKZF3 substrate protein remaining %” value at IKZF3 is listed as “B (80%< substrate protein remaining %≤ 100%)”. For the same molecule, the “Wee1 substrate protein remaining %” value on WEE1 was “A (0% ≤ substrate protein remaining % ≤ 80%)”. For the same molecule, the “GSPT1 substrate protein remaining %” value in the assay on GSPT1 was “B (80%< substrate protein remaining %≤ 100%)”. In assay [1], the inhibition at 0.5 µM fell in the range of 53 to 60% and the inhibition at 2 µM was 80 to 100%.
Turning to `O=C1CCC(N2Cc3c(CN4CCN(c5nc(Cl)nc6c5SCC6)CC4)cccc3C2=S)C(=O)N1` (stereo not shown) [GT-08966, 3-(4-((4-(2-chloro-6,7-dihydrothieno[3,2-d]pyrimidin-4-yl)piperazin-1-yl)methyl)-1-thioxoisoindolin-2-yl)piperidine-2,6-dione], the “CK1α substrate protein remaining %” value at CK1α is on record as “B (80%< substrate protein remaining %≤ 100%)”. Further, the “IKZF 1 substrate protein remaining %” value on IKZF1 is given as “B (80%< substrate protein remaining %≤ 100%)”. For the same molecule, the “IKZF2 substrate protein remaining %” value at IKZF2 is “B (80%< substrate protein remaining %≤ 100%)”. In addition, the “IKZF3 substrate protein remaining %” value on IKZF3 is given as “B (80%< substrate protein remaining %≤ 100%)”. Further, the “Wee1 substrate protein remaining %” value on WEE1 was “B (80%< substrate protein remaining %≤ 100%)”. For the same molecule, the “GSPT1 substrate protein remaining %” value in the assay on GSPT1 is reported as “A (0% ≤ substrate protein remaining % ≤ 80%)”. Further, in assay [1], the inhibition at 0.5 µM is 80 to 100% and the inhibition at 2 µM is 80 to 100%.
With `O=C1CCC(N2Cc3c(CN4CCN(c5nc(N6CCOCC6)nc6c5SCC6)CC4)cccc3C2=S)C(=O)N1` (stereo not shown) [GT-08968, 3-(4-((4-(2-morpholino-6,7-dihydrothieno[3,2-d]pyrimidin-4-yl)piperazin-1-yl)methyl)-1-thioxoisoindolin-2-yl)piperidine-2,6-dione], the “CK1α substrate protein remaining %” value at CK1α was “B (80%< substrate protein remaining %≤ 100%)”. The “IKZF 1 substrate protein remaining %” value on IKZF1 was “B (80%< substrate protein remaining %≤ 100%)”. Moreover, the “IKZF2 substrate protein remaining %” value at IKZF2 is “B (80%< substrate protein remaining %≤ 100%)”. For the same molecule, the “IKZF3 substrate protein remaining %” value on IKZF3 is on record as “B (80%< substrate protein remaining %≤ 100%)”. Besides, the “Wee1 substrate protein remaining %” value at WEE1 was “A (0% ≤ substrate protein remaining % ≤ 80%)”. For the same molecule, in the assay with GSPT1, the “GSPT1 substrate protein remaining %” value was “B (80%< substrate protein remaining %≤ 100%)”. Moreover, in assay [1], the inhibition at 0.5 µM lay within 60 to 80% and the inhibition at 2 µM lay in the range of 80 to 100%.
As to `O=C1CCC(N2Cc3c(CN4CCN(c5nc(Cl)nc6ccsc56)CC4)cccc3C2=S)C(=O)N1` (stereo not shown) [GT-08971, 3-(4-((4-(2-chlorothieno[3,2-d]pyrimidin-4-yl)piperazin-1-yl)methyl)-1-thioxoisoindolin-2-yl)piperidine-2,6-dione], the “CK1α substrate protein remaining %” value at CK1α was “B (80%< substrate protein remaining %≤ 100%)”. For the same molecule, the “IKZF 1 substrate protein remaining %” value at IKZF1 is given as “B (80%< substrate protein remaining %≤ 100%)”. The “IKZF2 substrate protein remaining %” value at IKZF2 is listed as “B (80%< substrate protein remaining %≤ 100%)”. Also, the “IKZF3 substrate protein remaining %” value at IKZF3 was “B (80%< substrate protein remaining %≤ 100%)”. For the same molecule, the “Wee1 substrate protein remaining %” value at WEE1 is reported as “A (0% ≤ substrate protein remaining % ≤ 80%)”. The “GSPT1 substrate protein remaining %” value in the assay with GSPT1 is reported as “B (80%< substrate protein remaining %≤ 100%)”. For the same molecule, in assay [1], the inhibition at 0.5 µM is 80 to 100% and the inhibition at 2 µM lay in the range of 80 to 100%.
For `O=C1CCC(N2Cc3c(CN4CCN(c5nc(N6CCOCC6)nc6ccsc56)CC4)cccc3C2=S)C(=O)N1` (stereo not shown) [GT-09032, 3-(4-((4-(2-morpholinothieno[3,2-d]pyrimidin-4-yl)piperazin-1-yl)methyl)-1-thioxoisoindolin-2-yl)piperidine-2,6-dione], at CK1α, the “CK1α substrate protein remaining %” value was “B (80%< substrate protein remaining %≤ 100%)”. Besides, the “IKZF 1 substrate protein remaining %” value on IKZF1 was “B (80%< substrate protein remaining %≤ 100%)”. Further, at IKZF2, the “IKZF2 substrate protein remaining %” value is given as “B (80%< substrate protein remaining %≤ 100%)”. For the same molecule, on IKZF3, the “IKZF3 substrate protein remaining %” value is reported as “B (80%< substrate protein remaining %≤ 100%)”. The “Wee1 substrate protein remaining %” value at WEE1 was “A (0% ≤ substrate protein remaining % ≤ 80%)”. The “GSPT1 substrate protein remaining %” value in the assay on GSPT1 is “B (80%< substrate protein remaining %≤ 100%)”. Moreover, in assay [1], the inhibition at 0.5 µM is 40 to 53% and the inhibition at 2 µM lay in the range of 80 to 100%.
For the molecule `O=C1CCC(N2Cc3c(CN4CCN(c5nc(N6CCOCC6)c6sccc6n5)CC4)cccc3C2=S)C(=O)N1` (stereo not shown) [GT-09033, 3-(4-((4-(4-morpholinothieno[3,2-d]pyrimidin-2-yl)piperazin-1-yl)methyl)-1-thioxoisoindolin-2-yl)piperidine-2,6-dione], at CK1α, the “CK1α substrate protein remaining %” value was “B (80%< substrate protein remaining %≤ 100%)”. Moreover, the “IKZF 1 substrate protein remaining %” value at IKZF1 was “B (80%< substrate protein remaining %≤ 100%)”. Moreover, the “IKZF2 substrate protein remaining %” value at IKZF2 was “B (80%< substrate protein remaining %≤ 100%)”. For the same molecule, the “IKZF3 substrate protein remaining %” value at IKZF3 is “B (80%< substrate protein remaining %≤ 100%)”. Moreover, the “Wee1 substrate protein remaining %” value at WEE1 is reported as “A (0% ≤ substrate protein remaining % ≤ 80%)”. For the same molecule, the “GSPT1 substrate protein remaining %” value in the assay with GSPT1 is given as “B (80%< substrate protein remaining %≤ 100%)”. In addition, in assay [1], the inhibition at 0.5 µM lay within 60 to 80% and the inhibition at 2 µM was in the range of 80 to 100%.
